Data reported in US7960377B2 (priority 2008, dated 2011).
Like-named read-outs stand apart in the source and are kept apart here.

Key:
Assay in all cases: cell-based
rat CB2 receptor = biological target: T1, rat CB2 receptor (Rattus norvegicus, UniProt Q9QZN9); format: cell-based; conditions: for inverse agonist mark, rat CB2 receptor: asterisk at the compound number
T1 sequence (Q9QZN9 1-360): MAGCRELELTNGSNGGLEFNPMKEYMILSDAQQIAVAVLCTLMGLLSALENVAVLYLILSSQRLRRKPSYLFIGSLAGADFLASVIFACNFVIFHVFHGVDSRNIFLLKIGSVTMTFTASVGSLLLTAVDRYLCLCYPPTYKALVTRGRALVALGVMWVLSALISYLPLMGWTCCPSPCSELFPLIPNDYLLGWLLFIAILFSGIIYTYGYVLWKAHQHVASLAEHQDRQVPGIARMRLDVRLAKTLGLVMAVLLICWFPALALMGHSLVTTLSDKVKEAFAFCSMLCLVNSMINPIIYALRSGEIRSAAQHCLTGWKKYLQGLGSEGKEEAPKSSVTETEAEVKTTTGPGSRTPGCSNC

human CB2 receptor = human CB2 receptor (Homo sapiens, UniProt P34972); format: cell-based
human CB1 receptor = human CB1 receptor (Homo sapiens, UniProt P21554); conditions: for inverse agonist mark, human CB1 receptor: asterisk at the compound number
[1] = change in intracellular cAMP, CHO-K1 hCB2 cells, class AR, read-out: EC50 values for human CB2 receptor

Chain of human CB2 receptor (P34972 whole entry): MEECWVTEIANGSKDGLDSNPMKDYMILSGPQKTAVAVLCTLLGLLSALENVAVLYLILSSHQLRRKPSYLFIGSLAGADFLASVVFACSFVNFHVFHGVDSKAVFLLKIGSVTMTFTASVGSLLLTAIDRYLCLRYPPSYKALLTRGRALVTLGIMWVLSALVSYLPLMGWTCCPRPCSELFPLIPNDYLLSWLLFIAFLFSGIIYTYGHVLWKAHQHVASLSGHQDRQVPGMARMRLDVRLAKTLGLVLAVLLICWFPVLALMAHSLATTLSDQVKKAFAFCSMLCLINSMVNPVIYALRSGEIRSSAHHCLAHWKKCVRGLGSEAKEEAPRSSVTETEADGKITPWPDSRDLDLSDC
Chain of human CB1 receptor (P21554 whole entry): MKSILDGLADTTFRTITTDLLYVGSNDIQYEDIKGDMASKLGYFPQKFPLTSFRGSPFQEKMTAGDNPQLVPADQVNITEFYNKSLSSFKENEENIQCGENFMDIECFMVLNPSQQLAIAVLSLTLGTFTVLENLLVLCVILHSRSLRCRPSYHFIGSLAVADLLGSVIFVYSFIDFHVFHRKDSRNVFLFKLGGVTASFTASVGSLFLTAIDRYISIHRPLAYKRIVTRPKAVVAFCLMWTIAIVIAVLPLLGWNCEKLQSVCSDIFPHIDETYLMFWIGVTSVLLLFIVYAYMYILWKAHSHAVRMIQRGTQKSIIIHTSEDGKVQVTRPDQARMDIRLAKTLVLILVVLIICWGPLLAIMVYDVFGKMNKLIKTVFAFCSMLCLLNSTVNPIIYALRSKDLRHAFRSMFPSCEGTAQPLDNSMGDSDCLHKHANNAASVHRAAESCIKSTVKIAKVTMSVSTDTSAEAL

SMILES | EC50 (rat CB2 receptor) [nM] | EC50 (human CB2 receptor) [µM] | EC50 (human CB1 receptor) [µM] | other results
CC(C)(C)NC(=O)c1cnc2c(c1)N(S(=O)(=O)c1ccc(C#N)cc1)CCO2 [Example 3, N-tert-butyl-1-(4-cyanophenylsulfonyl)-2,3-dihydro-1H-pyrido[2,3-b][1,4]oxazine-7-carboxamide] | ≤ 30 | ≤ 0.03 |  | 
CC(C)(C)NC(=O)c1cnc2c(c1)N(S(=O)(=O)c1ccc(F)cc1)CCO2 [Example 7, N-tert-butyl-1-(4-fluoro-phenylsulfonyl)-2,3-dihydro-1H-pyrido[2,3-b][1,4]oxazine-7-carboxamide] | ≤ 30 | ≤ 0.03 |  | 
CC(C)(C)CNC(=O)c1cnc2c(c1)N(S(=O)(=O)c1ccc(F)cc1)CCO2 [Example 11] | ≤ 30 | ≤ 0.03 |  | 
CC(C)(C)NC(=O)c1cnc2c(c1)N(S(=O)(=O)c1ccc(Cl)cc1)CCO2 [Example 24, N-tert-butyl-1-(4-chlorophenylsulfonyl)-2,3-dihydro-1H-pyrido[2,3-b][1,4]oxazine-7-carboxamide] | ≤ 30 | ≤ 0.03 |  | 
O=C(NC1CCCC1)c1cnc2c(c1)N(S(=O)(=O)c1ccc(Cl)cc1)CCO2 [Example 25, 1-(4-chlorophenyl-sulfonyl)-N-cyclopentyl-2,3-dihydro-1H-pyrido[2,3-b][1,4]oxazine-7-carboxamide] | ≤ 30 | ≤ 0.03 |  | 
O=C(NCCO)c1cnc2c(c1)N(S(=O)(=O)c1ccc(Cl)cc1F)CCO2 [Example 115, 1-(4-chloro-2-fluorophenylsulfonyl)-N-(2-hydroxyethyl)-2,3-dihydro-1H-pyrido[2,3-b][1,4]oxazine-7-carboxamide] |  |  | > 30 | EC50 (human CB2 receptor; [1]): > 30 µM
O=C(c1cnc2c(c1)N(S(=O)(=O)c1ccc(Cl)c(Cl)c1)CCO2)N1CCN(c2ccccn2)CC1 [Example 117] |  | > 30 |  | inverse agonist mark, human CB1 receptor (human CB1 receptor): 11, 24, 25, 42, 43*, 67, 117*, 121, 124, 131, 132, 148, 150, 151,
O=C(c1cnc2c(c1)N(S(=O)(=O)c1ccc(Cl)c(Cl)c1)CCO2)N1CCN(S(=O)(=O)c2ccccc2)CC1 [Example 118, (1-(3,4-dichlorophenyl-sulfonyl)-2,3-dihydro-1H-pyrido[2,3-b][1,4]oxazin-7-yl)(4-(phenylsulfonyl)piperazin-1-yl)methanone] |  |  |  | inverse agonist mark, rat CB2 receptor (rat CB2 receptor): 118*, 120, 123, 125, 127, 134, 143, 145, 161, 174, 175, 176, 198,; EC50 (human CB2 receptor; [1]): > 30 µM
O=C(c1cnc2c(c1)N(S(=O)(=O)c1ccc(Cl)c(Cl)c1)CCO2)N1CC(O)C1 [Example 125, (1-(3,4-dichlorophenyl-sulfonyl)-2,3-dihydro-1H-pyrido[2,3-b][1,4]oxazin-7-yl)(3-hydroxyazetidin-1-yl)methanone] |  |  | > 30 | EC50 (human CB2 receptor; [1]): > 30 µM
O=C(N[C@H]1CC[C@H](O)CC1)c1cnc2c(c1)N(S(=O)(=O)c1ccc(Cl)c(Cl)c1)CCO2 [Example 134, 1-(3,4-dichlorophenyl-sulfonyl)-N-(trans-4-hydroxycyclohexyl)-2,3-dihydro-1H-pyrido[2,3-b][1,4]oxazine-7-carboxamide] |  |  | > 30 | EC50 (human CB2 receptor; [1]): > 30 µM
CCC(C)(C)NC(=O)c1cnc2c(c1)N(S(=O)(=O)N1CCC(C(F)(F)F)CC1)CCO2 [Example 151, N-tert-pentyl-1-(4-(trifluoromethyl)piperidin-1-ylsulfonyl)-2,3-dihydro-1H-pyrido[2,3-b][1,4]oxazine-7-carboxamide] | ≤ 30 | ≤ 0.03 |  | 
CC(C)(C)c1cc(NC(=O)c2cnc3c(c2)N(S(=O)(=O)N2CCC(C(F)(F)F)CC2)CCO3)no1 [Example 154, N-(5-tert-butylisoxazol-3-yl)-1-(4-(trifluoromethyl)piperidin-1-ylsulfonyl)-2,3-dihydro-1H-pyrido[2,3-b][1,4]oxazine-7-carboxamide] | ≤ 30 |  |  | inverse agonist mark, rat CB2 receptor (rat CB2 receptor): 146, 148, 149, 150, 151, 152, 153*, 154*, 155, 156, 157, 163, 164,; inverse agonist mark, human CB2 receptor (human CB2 receptor; asterisk at the compound number): 121, 124, 131, 136, 137, 138, 139, 146, 150, 152, 154*, 155, 157,
CC(C)(C)NC(=O)c1cnc2c(c1)N(S(=O)(=O)N1CCC(F)(F)CC1)CCO2 [Example 156, N-tert-butyl-1-(4,4-difluoropiperidin-1-ylsulfonyl)-2,3-dihydro-1H-pyrido[2,3-b][1,4]oxazine-7-carboxamide] | ≤ 30 | ≤ 0.03 |  | 
CC(C)(C)NC(=O)c1cnc2c(c1)N(S(=O)(=O)N1CCC(c3ccccc3)CC1)CCO2 [Example 158, N-tert-butyl-1-(4-phenylpiperidin-1-ylsulfonyl)-2,3-dihydro-1H-pyrido[2,3-b][1,4]oxazine-7-carboxamide] |  | > 30 | > 30 | 
CCC(C)(C)NC(=O)c1cnc2c(c1)N(S(=O)(=O)N1CCC(c3ccccc3)CC1)CCO2 [Example 159, N-tert-pentyl-1-(4-phenylpiperidin-1-ylsulfonyl)-2,3-dihydro-1H-pyrido[2,3-b][1,4]oxazine-7-carboxamide] |  | > 30 | > 30 | 
CC(C)(CO)CNC(=O)c1cnc2c(c1)N(S(=O)(=O)N1CCC(c3ccccc3)CC1)CCO2 [Example 161, N-(3-hydroxy-2,2-dimethylpropyl)-1-(4-phenylpiperidin-1-ylsulfonyl)-2,3-dihydro-1H-pyrido[2,3-b][1,4]oxazine-7-carboxamide] |  | > 30 | > 30 | 
CC(C)(C)c1cc(NC(=O)c2cnc3c(c2)N(S(=O)(=O)N2CCC(F)(F)C2)CCO3)no1 [Example 165, N-(5-tert-butylisoxazol-3-yl)-1-(3,3-difluoro-pyrrolidin-1-ylsulfonyl)-2,3-dihydro-1H-pyrido-[2,3-b][1,4]oxazine-7-carboxamide] |  | > 30 |  | inverse agonist mark, rat CB2 receptor (rat CB2 receptor): 108, 114, 117, 122, 126, 128, 129, 130, 141, 147, 162*, 165*, 179,
CN1CCN(S(=O)(=O)N2CCOc3ncc(C(=O)NC(C)(C)C)cc32)CC1 [Example 174, N-tert-butyl-1-(4-methylpiperazin-1-ylsulfonyl)-2,3-dihydro-1H-pyrido[2,3-b][1,4] oxazine-7-carboxamide] |  | > 30 | > 30 | 
CC(C)(C)NC(=O)c1cnc2c(c1)N(S(=O)(=O)N1CCC(Cl)CC1)CCO2 [Example 184, N-tert-butyl-1-(4-chloropiperidin-1-ylsulfonyl)-2,3-dihydro-1H-pyrido[2,3-b][1,4]oxazine-7-carboxamide] | ≤ 30 | > 30 |  | 
CCC(C)(C)NC(=O)c1cnc2c(c1)N(S(=O)(=O)N1CCC(Cl)CC1)CCO2 [Example 185, 1-(4-chloropiperidin-1-ylsulfonyl)-N-tert-pentyl-2,3-dihydro-1H-pyrido[2,3-b][1,4]oxazine-7-carboxamide] | ≤ 30 | > 30 |  | 
CC(C)(CO)CNC(=O)c1cnc2c(c1)N(S(=O)(=O)N1CCC(Cl)CC1)CCO2 [Example 187, 1-(4-chloropiperidin-1-ylsulfonyl)-N-(3-hydroxy-2,2-dimethylpropyl)-2,3-dihydro-1H-pyrido[2,3-b][1,4]oxazine-7-carboxamide] | ≤ 30 | > 30 |  | 
CC(C)(C)NC(=O)c1cnc2c(c1)N(S(=O)(=O)N1CCc3ccccc3C1)CCO2 [Example 188, N-tert-butyl-1-(3,4-dihydroisoquinolin-2(1H)-ylsulfonyl)-2,3-dihydro-1H-pyrido[2,3-b][1,4]oxazine-7-carboxamide] |  | > 30 |  | inverse agonist mark, human CB1 receptor (human CB1 receptor): 152, 154, 155, 165, 184, 185, 187, 188*, 212, 214, 217, 227
CCC(C)(C)NC(=O)c1cnc2c(c1)N(S(=O)(=O)N1CCc3ccccc3C1)CCO2 [Example 189, 1-(3,4-dihydroisoquinolin-2(1H)-ylsulfonyl)-N-tert-pentyl-2,3-dihydro-1H-pyrido[2,3-b][1,4]oxazine-7-carboxamide] |  | > 30 | > 30 | 
CC(C)(CO)NC(=O)c1cnc2c(c1)N(S(=O)(=O)N1CCc3ccccc3C1)CCO2 [Example 190, 1-(3,4-dihydroisoquinolin-2(1H)-ylsulfonyl)-N-(1-hydroxy-2-methylpropan-2-yl)-2,3-dihydro-1H-pyrido[2,3-b][1,4]oxazine-7-carboxamide] |  | > 30 | > 30 | 
CC(C)(CO)CNC(=O)c1cnc2c(c1)N(S(=O)(=O)N1CC(F)(F)C1)CCO2 [Example 196, 1-(3,3-difluoroazetidin-1-ylsulfonyl)-N-(3-hydroxy-2,2-dimethylpropyl)-2,3-dihydro-1H-pyrido[2,3-b][1,4]oxazine-7-carboxamide] | ≤ 30 | > 30 |  | 
O=C(O)CC1COCCN1C(=O)c1cnc2c(c1)N(S(=O)(=O)c1ccc(C(F)(F)F)cc1)CCO2 (stereo not drawn) [Example 207] |  |  |  | EC50 (rat CB2 receptor; change in intracellular cAMP, CHO-K1 rCB2 cells, class AR, read-out: EC50 values for rat CB2 receptor): > 30000 nM; EC50 (human CB2 receptor; [1]): > 30 µM
O=C(NC1(C(=O)O)CCC1)c1cnc2c(c1)N(S(=O)(=O)c1ccc(C(F)(F)F)cc1)CCO2 [Example 208, 1-(1-(4-(trifluoromethyl)phenylsulfonyl)-2,3-dihydro-1H-pyrido[2,3-b][1,4]oxazine-7-carboxamido)cyclobutanecarboxylic acid] |  |  | > 30 | EC50 (human CB2 receptor; [1]): > 30 µM
CC1(C)CNC(c2cnc3c(c2)N(S(=O)(=O)c2ccc(C(F)(F)F)cc2)CCO3)=N1 [Example 224, 7-(4,4-dimethyl-4,5-dihydro-1H-imidazol-2-yl)-1-(4-(trifluoromethyl)phenylsulfonyl)-2,3-dihydro-1H-pyrido[2,3-b][1,4]oxazine] |  |  | > 30 | EC50 (human CB2 receptor; [1]): > 30 µM
